Experimental data reported in PubChem BioAssay AID248 (DTP/NCI, 2004).
Values joined by “and” are separate entries in the source; they are usually repeats but may differ in a detail not shown here. Identical values can stand only once. Inconclusive results and toxic doses are left out. Rule as the data show it: active = T/C of 150% or more; inactive = T/C below 125%.

System: L1210 leukemia ip in BDF1 mice, survival T/C
Test: NCI In Vivo Anticancer Drug Screen. Data for tumor model L1210 Leukemia (intraperitoneal) in B6D2F1 (BDF1) mice
Settings: endpoint: mean survival time, higher = longer survival
Method in brief: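 Ratio derived from survival: compound-dosed mice over vehicle-dosed mice, all bearing a transplantable tumor.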

[1] = dose: 100.0 mg/kg/injection, schedule: Q01DX001 (ip), vehicle: carboxymethylcellulose (CMC)
[2] = dose: 200.0 mg/kg/injection, schedule: Q01DX001 (ip), vehicle: carboxymethylcellulose (CMC)
[3] = dose: 100.0 mg/kg/injection, schedule: Q01DX009 (ip), vehicle: saline
[4] = dose: 100.0 mg/kg/injection, schedule: Q04DX003 (ip), vehicle: saline
[5] = dose: 200.0 mg/kg/injection, schedule: Q01DX009 (ip), vehicle: saline
[6] = dose: 200.0 mg/kg/injection, schedule: Q04DX003 (ip), vehicle: saline
[7] = dose: 400.0 mg/kg/injection, schedule: Q04DX003 (ip), vehicle: saline
[8] = dose: 50.0 mg/kg/injection, schedule: Q01DX001 (ip), vehicle: saline
[9] = dose: 100.0 mg/kg/injection, schedule: Q01DX001 (ip), vehicle: saline
[10] = dose: 100.0 mg/kg/injection, schedule: Q04DX003 (ip), vehicle: saline with Tween-80
[11] = dose: 200.0 mg/kg/injection, schedule: Q04DX003 (ip), vehicle: saline with Tween-80
[12] = dose: 400.0 mg/kg/injection, schedule: Q04DX003 (ip), vehicle: saline with Tween-80
[13] = dose: 75.0 mg/kg/injection, schedule: Q01DX001 (ip), vehicle: saline
[14] = dose: 100.0 mg/kg/injection, schedule: Q01DX009 (ip), vehicle: saline with Tween-80
[15] = dose: 200.0 mg/kg/injection, schedule: Q01DX009 (ip), vehicle: saline with Tween-80
[16] = dose: 50.0 mg/kg/injection, schedule: Q01DX009 (ip), vehicle: saline with Tween-80

Measured: T/C

Cc1coc(NS(=O)(=O)c2ccc(N=Nc3cc(N=Nc4ccccc4)c(N)nc3N)cc2)c1C
inactive: [1] 94 % of control | [2] 105 % of control

CC(=O)c1cc(N)ccc1SC#N
inactive: dose: 5.0 mg/kg/injection, schedule: Q01DX009 (ip), vehicle: saline with Tween-80 102 % of control | dose: 5.0 mg/kg/injection, schedule: Q04DX003 (ip), vehicle: saline with Tween-80 101 % of control | dose: 10.0 mg/kg/injection, schedule: Q01DX009 (ip), vehicle: saline with Tween-80 96 % of control | dose: 10.0 mg/kg/injection, schedule: Q04DX003 (ip), vehicle: saline with Tween-80 101 % of control | dose: 20.0 mg/kg/injection, schedule: Q01DX009 (ip), vehicle: saline with Tween-80 100 % of control | dose: 20.0 mg/kg/injection, schedule: Q04DX003 (ip), vehicle: saline with Tween-80 103 % of control

NC(=O)CCCN1CCCC1=O
inactive: [3] 100 % of control | [4] 100 % of control | [5] 111 % of control | [6] 101 % of control | dose: 400.0 mg/kg/injection, schedule: Q01DX009 (ip), vehicle: saline 110 % of control | [7] 97 % of control

Cc1ccc(S(=O)(=O)OCC2C3C=CC(c4ccccc43)C2COS(=O)(=O)c2ccc(C)cc2)cc1 (stereo unspecified)
inactive: dose: 75.0 mg/kg/injection, schedule: Q01DX009 (ip), vehicle: saline with Tween-80 96 % of control | dose: 150.0 mg/kg/injection, schedule: Q01DX009 (ip), vehicle: saline with Tween-80 91 % of control | dose: 300.0 mg/kg/injection, schedule: Q01DX009 (ip), vehicle: saline with Tween-80 90 % of control

OCC[N-]CCCN=Cc1ccccc1O.OCC[N-]CCCN=Cc1ccccc1O.[Co+2]
inactive: [8] 96 % of control | [9] 100 % of control

Clc1cc(Cl)cc(N=Nc2ccccc2)c1
inactive: dose: 100.0 mg/kg/injection, schedule: Q04DX003 (ip), vehicle: Klucel (hydroxypropylcellulose) (HPC) 102 % of control | dose: 200.0 mg/kg/injection, schedule: Q04DX003 (ip), vehicle: Klucel (hydroxypropylcellulose) (HPC) 103 % of control | dose: 400.0 mg/kg/injection, schedule: Q04DX003 (ip), vehicle: Klucel (hydroxypropylcellulose) (HPC) 103 % of control

O=C(CCCCCl)Nc1cccc2c1C(=O)c1c(c(O)c3ccccc3c1O)C2=O
inactive: [10] 98 % of control | [11] 90 % of control | [12] 90 % of control

NC(CC(=O)NCC(=O)O)C(=O)O (stereo unspecified)
inactive: dose: 12.5 mg/kg/injection, schedule: Q04DX002 (ip), vehicle: Klucel (hydroxypropylcellulose) (HPC) 105 % of control | dose: 25.0 mg/kg/injection, schedule: Q04DX002 (ip), vehicle: Klucel (hydroxypropylcellulose) (HPC) 98 % of control | dose: 50.0 mg/kg/injection, schedule: Q04DX002 (ip), vehicle: Klucel (hydroxypropylcellulose) (HPC) 94 % of control

O=C(OCc1ccccc1CN1CCCC1)c1ccccc1
inactive: dose: 25.0 mg/kg/injection, schedule: Q01DX001 (ip), vehicle: Klucel (hydroxypropylcellulose) (HPC) 98 % of control | dose: 50.0 mg/kg/injection, schedule: Q01DX001 (ip), vehicle: Klucel (hydroxypropylcellulose) (HPC) 95 % of control | dose: 100.0 mg/kg/injection, schedule: Q01DX001 (ip), vehicle: Klucel (hydroxypropylcellulose) (HPC) 98 % of control and 102 % of control

Cc1cc(C)c(S(=O)(=O)CC(Cl)c2ccccc2)c(C)c1 (stereo unspecified)
inactive: dose: 100.0 mg/kg/injection, schedule: Q01DX001 (ip), vehicle: acetone 95 % of control | dose: 100.0 mg/kg/injection, schedule: Q04DX003 (ip), vehicle: acetone 103 % of control | dose: 200.0 mg/kg/injection, schedule: Q01DX001 (ip), vehicle: acetone 97 % of control | dose: 200.0 mg/kg/injection, schedule: Q04DX003 (ip), vehicle: acetone 97 % of control | dose: 400.0 mg/kg/injection, schedule: Q01DX001 (ip), vehicle: acetone 93 % of control | dose: 400.0 mg/kg/injection, schedule: Q04DX003 (ip), vehicle: acetone 97 % of control

O=C1C=C(O)C(c2ccccc2)=CC1=O
inactive: dose: 100.0 mg/kg/injection, schedule: Q01DX001 (ip), vehicle: water 104 % of control | dose: 200.0 mg/kg/injection, schedule: Q01DX001 (ip), vehicle: water 119 % of control

CC[n+]1csc2ccccc21
inactive: [13] 102 % of control | dose: 150.0 mg/kg/injection, schedule: Q01DX001 (ip), vehicle: saline 105 % of control | dose: 300.0 mg/kg/injection, schedule: Q01DX001 (ip), vehicle: saline 97 % of control

O=C(Nc1ccccc1)Nc1ccc(F)cc1
inactive: [14] 100 % of control | [10] 101 % of control | [15] 94 % of control | [11] 99 % of control | dose: 400.0 mg/kg/injection, schedule: Q01DX009 (ip), vehicle: saline with Tween-80 96 % of control | [12] 105 % of control

CC(C#N)(Cc1ccccc1)Nc1ccccc1 (stereo unspecified)
inactive: [16] 102 % of control | [14] 101 % of control | [15] 96 % of control

NC(CS)=NCC12CC3CC(CC(C3)C1)C2
inactive: dose: 12.5 mg/kg/injection, schedule: Q04DX003 (ip), vehicle: carboxymethylcellulose (CMC) 93 % of control | dose: 25.0 mg/kg/injection, schedule: Q04DX003 (ip), vehicle: carboxymethylcellulose (CMC) 98 % of control

N#CCCOC(=O)CCC(=O)OCCC#N
inactive: dose: 100.0 mg/kg/injection, schedule: Q01DX001 (ip), vehicle: other 104 % of control | dose: 200.0 mg/kg/injection, schedule: Q01DX001 (ip), vehicle: other 100 % of control | dose: 400.0 mg/kg/injection, schedule: Q01DX001 (ip), vehicle: other 102 % of control

CC(=O)[O][Ge]([CH2]CC(C)C)([CH2]CC(C)C)[CH2]CC(C)C
inactive: dose: 50.0 mg/kg/injection, schedule: Q01DX001 (ip), vehicle: carboxymethylcellulose (CMC) 100 % of control | [8] 100 % of control | [1] 100 % of control | [9] 102 % of control | [2] 100 % of control | dose: 200.0 mg/kg/injection, schedule: Q01DX001 (ip), vehicle: saline 106 % of control | dose: 400.0 mg/kg/injection, schedule: Q01DX001 (ip), vehicle: carboxymethylcellulose (CMC) 96 % of control | dose: 400.0 mg/kg/injection, schedule: Q01DX001 (ip), vehicle: saline 118 % of control

NCCOP(=O)(O)O
inactive: dose: 50.0 mg/kg/injection, schedule: Q01DX009 (ip), vehicle: saline 95 % of control | [3] 98 % of control | [5] 106 % of control

CCOC(=O)N=C=S
inactive: [4] 95 % of control | [6] 103 % of control | [7] 95 % of control

CS(C)(C)N1C(=O)c2ccccc2C1=O
inactive: dose: 87.5 mg/kg/injection, schedule: Q01DX009 (ip), vehicle: Klucel (hydroxypropylcellulose) (HPC) 98 % of control | dose: 175.0 mg/kg/injection, schedule: Q01DX009 (ip), vehicle: Klucel (hydroxypropylcellulose) (HPC) 96 % of control

CC(=O)OC1CC(n2cc(C)c(=O)[nH]c2=O)OC1COC(c1ccccc1)(c1ccccc1)c1ccccc1 (stereo unspecified)
inactive: dose: 100.0 mg/kg/injection, schedule: Q01DX005 (ip), vehicle: saline 109 % of control | dose: 200.0 mg/kg/injection, schedule: Q01DX005 (ip), vehicle: saline 98 % of control

COCC1OC(OC(=O)c2ccccc2)C(OC(=O)c2ccccc2)C(OC(=O)c2ccccc2)C1OC (stereo unspecified)
inactive: dose: 12.5 mg/kg/injection, schedule: Q01DX009 (ip), vehicle: saline with Tween-80 97 % of control | dose: 25.0 mg/kg/injection, schedule: Q01DX009 (ip), vehicle: saline with Tween-80 95 % of control | [16] 93 % of control

CC(=O)Oc1ccc(N2CC=C(c3ccccc3)CC2)cc1
inactive: dose: 100.0 mg/kg/injection, schedule: Q04DX002 (ip), vehicle: Klucel (hydroxypropylcellulose) (HPC) 89 % of control | dose: 200.0 mg/kg/injection, schedule: Q04DX002 (ip), vehicle: Klucel (hydroxypropylcellulose) (HPC) 95 % of control

CCCCCC[n+]1ccc(C#N)cc1
inactive: [13] 101 % of control

COc1ccc2c(c1)CCC1C2CCC2(C)C1CCC2(C)N(C)C (stereo unspecified)
inactive: dose: 50.0 mg/kg/injection, schedule: Q01DX001 (sc), vehicle: steriod suspending solution 104 % of control
